The record followed here is US20230348418A1, “ISOINDOLINONE COMPOUNDS” (Monte Rosa Therapeutics, Inc., priority 2021, published 2023).

Assay [1] deals with T1, IKZF1 (Ikaros) (Homo sapiens, UniProt Q13422).
T1 construct: endogenous in cells; host or cells: MM1S (ATCC CRL-2974)
The experiment in a line: Western blot selectivity assay in MM1S cells: IKZF1. Also on record: key: A represents a no degradation observed at 30 μM; B represents trace degradation at 30 μM (below 20%); C represents weak degradation at 30 μM (below 50%); D represents degradation at 30 μM (>90%); E represents degradation at 3 μM (>90%); F represents degradation at 0.3 μM (>90%). As to conditions: MM1S cells, 0.3, 3 and 30 μM, 6 hours. The class given is cell-based. The method, then:
MM1S cells were purchased from ATCC (cat. Number CRL-2974), sub-cultured in 90% RPMI 1640 with 10% FBS, supplemented with 1×P/S and incubated at 37° C., 5% CO2. Compounds were stored as 10 mM DMSO stock. For the assay, MM1S cells (3 million cells/well) were plated in 6-well plates and incubated over night. Cells were treated with respective compounds using a serial dilution: 0.3 μM, 3 μM and 30 μM as well as a vehicle only (DMSO) control for 6 hours. Media with suspension cells was subsequently transferred to 15 mL conical tubes, wells rinsed twice with ice-cold PBS and merged with cell suspension in respective 15 mL conical tube. Cells were spinned down, supernatant aspirated, pellets resuspended in ice-cold PBS and transferred to microtubes. Cells were spinned down, supernatant aspirated and pellets resuspended in 120 μL RIPA lysis buffer supplemented with protease and phosphatase inhibitors. Cell lysates were incubated on ice for 20 minutes followed by centrifugation at >20,000×g for 5 min. Supernatants were transferred to fresh microtubes and stored at −80° C. Total protein concentration was determined using a BCA assay with a BSA standard curve and concentration of all samples was adjusted to 1 mg/mL. 25 μL 4×LDS sample buffer supplemented with 100 mM DTT was added to 75 μL sample. Samples were centrifuged (8,000×g, 1 min) and incubated at 95° C. for 5 min followed by another centrifugation step (8,000×g, 1 min). 20 μL of each sample was loaded on a 4-12% gel alongside a protein molecular weight marker. Gels were run in the presence of MOPS buffer at 80 Volts for 30 min, followed by 120 Volts for 1.5 h and proteins subsequently transferred onto nitrocellulose membranes at 20 Volts for 7 min using an iBlot2 Gel Transfer Device. Membranes were then cut horizontally into two pieces, covering 80-50 kDa and 50-25 kDa. Blocking the membranes was performed by gently shaking in 5% (w/v) skim milk in TSB-T for 1 hr at room temperature. All primary antibodies were used at a 1/1000 in 5% (w/v) BSA dissolved in TBST and incubated with membranes over night at 4° C. Anti-IKZF1 (Ikaros; D6N9Y; 14859S), anti-IKZF3 (Aiolos; D1C1E; 15103S) antibodies were purchased from Cell Signalling Technology, anti-ZFP91 antibody from Bethyl laboratories, anti-GSPT1 from Sigma Aldrich (HPA052488) and anti CK1alpha from AbCam (ab206652). After three washes with 1×TBST for 5 min, HRP-coupled secondary antibodies diluted in 5% (w/v) BSA/TBST (Goat Anti-Rb IgG, dil. 1/10,000; Goat Anti-Mouse IgG, dil. 1/5000) were added for 1 hr at room temperature. After three washes with 1×TBST (5 minutes each), membranes were incubated with ECL reagent for 1 min at room temperature. Chemiluminescence signals were then detected using a LAS-4000 system with default settings and signals quantified using Image Studio Lite software (version 5.2). Membrane parts previously incubated with antibody against CK1alpha were stripped off antibodies by incubating with stripping buffer for 30 minutes followed by three washed with TBST (5 min each), blocking with 5% (w/v) skim milk for 1 hr, and incubation with primary antibody against GAPDH overnight at 4° C. Subsequent washes, incubation with secondary antibody and signal acquisition were performed as described above.
(In general: Immunoblotting shows a protein as a band on a membrane.)

Assay [2] deals with GSPT1 (Homo sapiens, UniProt P15170+Q96SW2). Briefly: GSPT1 levels by western blotting/densitometry in NSCLC cell lines NCI-H1155 and ABC-1. The class given is cell-based. The procedure:
The anti-proliferative activity of compound 10 was tested on representative N-Myc high and N-Myc low cell lines (NCI-H1155, ABC-1 and EBC-1, NCI-H2023, respectively) following treatment with compound for 72 hours. Cells were sub-cultures as recommended by the providers (ATCC, DSMZ) and incubated at 37° C., 5% CO2. All cells were authenticated and confirmed by Short Tandem Repeat (STR) profiling. Briefly, cells were seeded to the appropriate density to allow logarithmic growth over the assay period in 96-well opaque-walled clear bottom plates (from Corning, Cat. No. 3903, Lot. No. 16419061; 100 μL total volume) and incubated overnight. […] Cell viability was assessed using the CellTiter-Glo assay kit as recommended by the Manufacturer (Promega, Cat. No. G7558, Lot. No. 0000385738) and measurements performed on the EnSpire multimode plate reader (Perkin Elmer). EC50 values were determined using Prism8 (GraphPad) and the asymmetric (five-parameter) equation and least squares fit. GSPT1 levels were assessed in the NCI-H1155 and ABC-1 cell lines by densitometry analysis following treatment with compound 10 for 6 hours and western blotting analysis. […] For chemiluminescence and colorimetric signals “optimal automatic exposure” settings (3×3 binning) were employed while fluorescence was detected using 1-4 seconds exposure time to achieve best GAPDH signals and avoid overexposure. […]

Chain of GSPT1 (P15170 whole entry): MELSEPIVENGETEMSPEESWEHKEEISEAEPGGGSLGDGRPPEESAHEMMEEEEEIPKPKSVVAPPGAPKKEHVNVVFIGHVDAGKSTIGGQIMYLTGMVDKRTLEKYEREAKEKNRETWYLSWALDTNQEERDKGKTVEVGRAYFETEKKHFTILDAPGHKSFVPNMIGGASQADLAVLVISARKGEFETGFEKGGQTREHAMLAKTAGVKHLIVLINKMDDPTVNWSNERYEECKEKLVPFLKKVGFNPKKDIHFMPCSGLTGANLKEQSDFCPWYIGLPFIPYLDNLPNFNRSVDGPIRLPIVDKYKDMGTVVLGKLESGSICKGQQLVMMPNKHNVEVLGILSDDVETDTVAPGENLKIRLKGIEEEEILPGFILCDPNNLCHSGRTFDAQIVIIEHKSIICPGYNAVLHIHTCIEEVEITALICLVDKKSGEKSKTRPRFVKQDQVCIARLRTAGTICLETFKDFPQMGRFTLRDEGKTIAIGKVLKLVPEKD
Chain of GSPT1 (Q96SW2 whole entry): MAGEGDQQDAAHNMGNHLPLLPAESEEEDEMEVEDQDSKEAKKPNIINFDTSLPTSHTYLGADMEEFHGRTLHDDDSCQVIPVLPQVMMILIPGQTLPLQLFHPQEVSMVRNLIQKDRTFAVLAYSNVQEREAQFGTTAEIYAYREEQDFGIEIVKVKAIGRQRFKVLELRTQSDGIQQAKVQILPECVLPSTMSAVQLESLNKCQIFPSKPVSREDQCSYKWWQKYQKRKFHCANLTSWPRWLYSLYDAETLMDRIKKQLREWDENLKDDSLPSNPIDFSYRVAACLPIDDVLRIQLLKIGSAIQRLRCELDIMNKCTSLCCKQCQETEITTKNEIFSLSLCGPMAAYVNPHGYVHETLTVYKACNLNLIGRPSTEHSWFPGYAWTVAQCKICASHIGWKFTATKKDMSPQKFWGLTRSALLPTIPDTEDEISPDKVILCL
Chain of GSPT1 (Q16531 2-1140 partner limits assumed): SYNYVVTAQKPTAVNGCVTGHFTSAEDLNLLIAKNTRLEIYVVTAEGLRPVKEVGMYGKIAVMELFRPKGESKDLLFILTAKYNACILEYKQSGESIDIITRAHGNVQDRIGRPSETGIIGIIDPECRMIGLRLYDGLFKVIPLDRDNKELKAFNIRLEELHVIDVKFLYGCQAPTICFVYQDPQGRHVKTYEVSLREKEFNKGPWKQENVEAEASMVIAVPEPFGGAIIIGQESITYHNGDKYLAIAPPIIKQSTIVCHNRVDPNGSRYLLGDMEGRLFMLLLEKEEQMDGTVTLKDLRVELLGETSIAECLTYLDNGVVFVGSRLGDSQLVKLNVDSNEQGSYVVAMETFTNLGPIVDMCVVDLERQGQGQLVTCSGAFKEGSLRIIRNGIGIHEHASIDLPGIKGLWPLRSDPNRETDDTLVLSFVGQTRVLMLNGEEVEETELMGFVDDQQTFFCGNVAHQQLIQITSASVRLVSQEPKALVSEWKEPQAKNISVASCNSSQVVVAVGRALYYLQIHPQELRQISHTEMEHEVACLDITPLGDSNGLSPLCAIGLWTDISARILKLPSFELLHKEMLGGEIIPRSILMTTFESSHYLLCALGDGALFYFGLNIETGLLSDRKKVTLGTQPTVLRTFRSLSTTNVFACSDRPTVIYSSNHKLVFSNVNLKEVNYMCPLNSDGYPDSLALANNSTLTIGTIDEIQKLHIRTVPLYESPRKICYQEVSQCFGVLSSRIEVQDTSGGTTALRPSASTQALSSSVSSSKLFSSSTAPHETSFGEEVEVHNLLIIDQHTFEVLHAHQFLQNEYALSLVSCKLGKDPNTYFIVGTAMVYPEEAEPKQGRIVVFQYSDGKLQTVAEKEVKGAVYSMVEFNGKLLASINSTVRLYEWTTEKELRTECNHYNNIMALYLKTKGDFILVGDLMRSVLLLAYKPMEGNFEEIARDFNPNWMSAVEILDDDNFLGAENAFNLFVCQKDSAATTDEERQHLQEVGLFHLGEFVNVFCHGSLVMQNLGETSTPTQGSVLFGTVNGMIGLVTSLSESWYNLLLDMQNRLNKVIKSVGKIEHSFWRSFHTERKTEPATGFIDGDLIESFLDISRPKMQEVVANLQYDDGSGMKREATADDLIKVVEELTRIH
T1 sequence (Q96SW2 whole entry partner): as the sequence (Q96SW2 whole entry) above
T1 sequence (Q16531 2-1140 partner limits assumed): as the sequence (Q16531 2-1140 partner limits assumed) above
T1 sequence (Q13422 whole entry): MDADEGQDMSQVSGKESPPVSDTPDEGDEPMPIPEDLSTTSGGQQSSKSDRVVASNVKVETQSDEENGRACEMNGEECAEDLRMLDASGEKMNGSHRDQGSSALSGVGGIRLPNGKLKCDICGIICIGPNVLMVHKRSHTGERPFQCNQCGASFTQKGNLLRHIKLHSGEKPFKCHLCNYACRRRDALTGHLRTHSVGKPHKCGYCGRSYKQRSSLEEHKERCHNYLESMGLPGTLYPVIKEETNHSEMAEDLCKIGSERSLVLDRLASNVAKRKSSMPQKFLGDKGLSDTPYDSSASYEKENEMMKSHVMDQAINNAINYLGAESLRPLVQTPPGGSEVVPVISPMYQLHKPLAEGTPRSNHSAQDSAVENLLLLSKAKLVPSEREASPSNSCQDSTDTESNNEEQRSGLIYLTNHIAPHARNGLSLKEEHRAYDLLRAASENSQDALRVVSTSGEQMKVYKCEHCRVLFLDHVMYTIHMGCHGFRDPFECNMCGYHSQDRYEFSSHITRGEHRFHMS

Turning to `Cc1ccc(NC(=O)OCc2ccc3c(c2)C(=O)N(C2CCC(=O)NC2=O)C3)cc1Cl` (stereo not drawn) [Compound 10], the IKZF1 degradation entry in assay [1] is listed as “A”. Further, in assay [2] (NCI-H1155 and ABC-1 cells), the “Concentration dependence of GSPT1 degradation (FIG. 2B)” value was “Degradation took place in a concentration dependent manner”. In addition, the “extent of GSPT1 degradation” value in assay [2] (high N-Myc NCI-H1155 and ABC-1 cells, six hours of treatment) is reported as “Complete degradation of GSPT1”.
